Test results from US6462086B1, “Non-malignant disease treatment with Ras antagonists” (Ramot University Authority for Applied Research and …, priority 1999, dated 2002).
“Also recorded” adds a separate entry of the source.

Legend:
CR-EAE in SJL/J mice = experiment: Chronic-relapsing EAE (CR-EAE) by transfer of PLP-sensitized lymphocytes, clinical signs; format: in vivo, mouse
MRL/lpr mice [1] = experiment: Proteinuria (dipstick) in MRL mice; format: in vivo, mouse; conditions: MRL/lpr mice treated 5 days a week from 6 weeks of age
Experimental: The presence of proteinuria was measured on freshly expressed urine samples at weekly intervals. The protein content was evaluated semiquantitatively using a commercial dipstick method (Macherey-Nagel, Germany). This colorimetric assay is specific for albumin, with approximate protein concentration as follows: 0, 30, 100 and 500 mg/dl (mg%).

EAN in Lewis rats = experiment: EAN rats, electrophysiology (tail nerve stimulation, CMAP); format: in vivo, rat; conditions: day 20; FTS for 10 or 28 days
Experimental: The animal was anesthetized with phenobarbital. […] Previous experience has shown that smaller amounts are necessary during the acute EAN disease phase in order to avoid mortality. Mono-polar needle electrodes were used to stimulate the sciatic nerve and the response was measured in the plantar muscle by a surface ring electrode (8). Alternatively, the tail nerves were stimulated and tail muscle response measured by the same electrodes. […] The tail response was therefore be used in the early disease stage (days 18-22). The latency of responses to distal and proximal stimulation were used to calculate nerve conduction velocity. The amplitude of the responses was used to assess conduction block. Electrophysiological assays were performed on day 20 in the 3 groups of rats described in the previous section.

[2] = tested on: carotid balloon injury in Wistar rats; experiment: Rat carotid balloon injury, intimal hyperplasia (morphometry); format: in vivo
Experimental: Group A: Four rats received daily intraperitoneal injections of FTS (5 mg/Kg) starting from the day of injury induction until sacrifice, 14 days later.
Group B: Four rats received daily intraperitoneal injections of control vehicle starting from the day of injury induction until sacrifice, 14 days later.
Animals were anesthetized by intraperitoneal injection of Ketamin (80 mg/Kg) and Xylazine (5 mg/Kg). […] Briefly, a balloon catheter (2F Fogarty) was passed through the external carotid into the aorta; the balloon was inflated with sufficient water to distend the common carotid artery and then pulled back to the external carotid. This procedure was repeated three times, and then the catheter was removed. After 14 days, the animals were sacrificed and the right and left carotid arteries were taken out and fixed in 4% paraformaldehyde until embedding in Paraffin. The arteries were cut in 10 um sections and stained with H&E and computer-assisted morphometric analyses were performed. The tested parameters were: intimal area, medial area, intimal/medial ratio and lumen area. Additionally, the %CSAN-N (% cross sectional area neointimal-neointamal) was calculated [IEL area-Lumen area]×100/IEL (a measure of the degree to which the IEL area is reduced by neointimal with greater normalization of the effect of changes in vessel wall size. Vasular remodeling process were further evaluated by computing the amount of plaque relative to the EEL (external elastic lamina) area.

[3] = tested on: TAA-induced acute liver injury in rats; experiment: TAA-induced acute liver damage in FTS-pretreated rats; format: in vivo, rat; conditions: TAA + FTS 5 mg/kg daily from 3 days before TAA; 52 h; Mean ± SD, n = 5
Experimental: To exclude the possibility that the effect of FTS on hepatic fibrosis is due to anti-inflammatory rather than anti fibrotic activity, acute liver damage was induced by TAA (3 injections of 400 mg/kg, i.p.) in a separate group of FTS-pretreated rats. Blood was drawn 52 h after the first TAA injection for the measurement of serum levels of hepatic enzymes and blood ammonia, and liver tissue was […]. TAA was administered in 3 consecutive injections of 400 mg/kg, i.p. in 24 h intervals. Serum levels of liver enzymes, blood ammonia and liver histology were determined 52 h after the first TAA injection. FTS administration (5 mg/kg daily), was started 3 days prior to the first TAA injection.

[4] = tested on: cancers in animals mediated by oncogenic forms of Ras; conditions: cited from earlier work
MRL/lpr mice [5] = experiment: Autoantibody levels in MRL mice after 2 months FTS (Example 4, ELISA); format: in vivo, mouse; conditions: FTS 5 mg/kg 5 days per week
Experimental: Two models of the antiphospholipid syndrome were compared. The MRL/lpr mouse, which is a […] model due to a mutaion in the Fas gene, and Balb-C mice immunized with ApoH (β2 glucoprotein 1), which is an induced model. The effect of 2 months FTS (5 days per week, 5 mg/kg) treatment on autoantibody levels in MRL mice (age 10 weeks to 18 weeks) is presented in FIG. 14. The levels of autoantibodies were measured at age 18 weeks by routine ELISA assays (repeated measures ANOVA, p=0.016). […] Anti-ApoH and anti-dsDNA were the major autoantibody groups found. Significant, but lower levels of autoantibodies to phospholipids and single stranded DNA were found in the MRL/lpr mice compared to the MLR/++ controls.

[6] = tested on: TAA-induced liver cirrhosis in Wistar rats; experiment: Hepatic hydroxyproline levels in TAA-induced cirrhosis; format: in vivo, rat
Experimental: Liver cirrhosis was induced in rats by intraperitoneal (i.p.) administration of TAA 200 mg/kg twice weekly for 12 weeks, as previously described (1, 2). […] The FTS was dissolved in PBS and administered i.p. 3 times a week to rats according to their assigned groups. Four groups containing 6 rats each were treated as follows. One group received TAA 200 mg/kg i.p. twice a week and i.p. injections of PBS 3 days a week for 12 weeks (cirrhotic controls for the FTS-treated groups). A second group received TAA for 12 weeks and FTS 5 mg/kg, 3 times a week. […] The two control groups consisted of one that received PBS injections without TAA for 12 weeks (normal controls) and a group of 5 rats that received only FTS 5 mg/kg i.p. for 12 weeks to monitor the appearance of adverse effects. Quantitative determination of hepatic hydroxyproline levels was performed as previously described (2). The hydroxyproline levels were analyzed twice and separately for each liver.

[7] = tested on: Balb-C mice immunized with ApoH; experiment: Autoantibodies in Balb-C mice immunized with ApoH (induced APS model); format: in vivo, mouse; conditions: 9 per group
Experimental: Similar antibody assays were performed with the sera of Balb-C mice (9 per group) immunized with ApoH 10 μg in complete Freund's adjuvant with boosts given 2 and 6 weeks later in incomplete adjuvant.

[8] = MRL/lpr mice, age 10 to 18 weeks

## CC(C)=CCC/C(C)=C/CC/C(C)=C/CSc1ccccc1C(=O)O [FTS, farnesyl thiosalicylic acid]
CR-EAE in SJL/J mice; FTS 5 mg/kg/day from day of cell transfer
  clinical course of CR-EAE (FIG. 2): milder form of CR-EAE
CR-EAE in SJL/J mice; FTS 5 mg/kg/day, vehicle group 30%
  mortality in CR-EAE: none of them died
CR-EAE in SJL/J mice; follow-up 2-3 months, n=7, control 9
  total relapses of the paralytic disease: 5
MRL/lpr mice [1]
  proteinuria: very low levels of proteinuria; also recorded: normalized
EAN in Lewis rats
  compound muscle action potentials (CMAPs), tail muscle: significant amelioration
[2]; FTS 5 mg/Kg i.p. daily 14 days vs control
  reduction of intimal area: 76%
[2]; FTS 5 mg/Kg i.p. daily 14 days, control 1.2±0.14
  medial area: 0.91 mm^2
[2]; FTS 5 mg/Kg i.p. daily 14 days, control 1.61
  Intimal area: 0.38 mm^2
[2]; FTS 5 mg/Kg i.p. daily 14 days, control 2.30
  luminal area: 1.45±0.34 mm^2
[2]; FTS 5 mg/Kg i.p. daily 14 days, control 52.4±7.4
  %CSAN-N: 15.5±4.3%
[3]
  AST: 2996 ± 364 IU/l
  Blood Ammonia: 8.9 ± 2.3 µg/mL
  Hepatic inflammation and cell necrosis (score of 0-3): 2.5 ± 0.6
[4]; cancers in animals, in some cases
  reduction in cancer cell growth: greater than 90%
[4]; earlier studies in FTS-treated animals
  body weight, specific organs size, blood count and chemistry: no alteration
[4]; previous animal studies
  doses that effectively inhibited tumor growth: 3 to 10 mg/kg
[4]; similar dosages as in cancer treatment
  effect on normal cells: very little, if any, effect on normal cells
MRL/lpr mice [5]
  levels of autoantibodies to phospholipids and single stranded DNA (minor antibodies): did not lower significantly
MRL/lpr mice [5]; [8]
  levels of anti-ApoH autoantibodies: Significantly lower levels
  levels of anti-double stranded DNA (dsDNA) autoantibodies: Significantly lower levels
[6]; TAA plus FTS, TAA alone 7.7±0.9
  hepatic hydroxyproline levels: 3.8±0.5 mg/g protein
[6]; control group treated with FTS only
  hepatic hydroxyproline levels: 1.6±0.1 mg/g protein
[7]
  anti-ApoH, anti-ds DNA and anti-phosphatidyl-ethanolamine levels: significant effect of FTS treatment
